The source of these data is paper PMC11742280, “A phase I study of MLN4924 and belinostat in relapsed/refractory acute myeloid leukemia or myelodysplastic syndrome” (Cancer Chemotherapy and Pharmacology, 2025).

The subject of data set [1] is high-risk MDS. Also noted: method as in PMID 35728048. To be noted: comparator (azacitidine without pevonedistat); subset with high-risk MDS, post-hoc analysis; cited from earlier work.
For data set [2] the following is noted: in vivo.
Method: (§1) Belinostat was administered by a 30 min intravenous (IV) infusion on days 1 through 5 of each cycle; pevonedistat was administered by a 60 min IV infusion on days 1, 3 and 5 immediately after belinostat. The treatments were repeated on 21-day cycles until disease progression or unacceptable toxicity. […] The regimen was administered on an outpatient basis.
(§2) Blood samples for measurement of plasma concentrations were collected on day 1 of cycle 1 for both belinostat and pevonedistat. Belinostat, PK samples were collected pretreatment, 5 min prior to the end of the infusion, and at 0.25, 0.5, 1, 2, 4, 6, 8, and 24 h after the end of the infusion. Pevonedistat, PK samples were collected pretreatment and 0.5, 1, 2, 2.5, 5, and 24 h after the start of the infusion. Plasma was stored at − 80 °C until analysis. […] Concentrations of belinostat were determined over the range of 30–5000 ng/mL with dilutions of up to 1:100 v/v using a validated LC/MS/MS method at the Analytical Pharmacology Core Laboratory at the Sidney Kimmel Comprehensive Cancer Center at Johns Hopkins [33].
(§3) Pharmacokinetic parameters were calculated from individual concentration–time data using standard noncompartmental methods as implemented in Phoenix WinNonlin version 8.2 (Pharsight A Certara Company, Cary, North Carolina). Pharmacokinetic parameters were summarized using descriptive statistics. Differences between the pharmacokinetic parameters between dose levels or BSA-based dose were evaluated statistically via the nonparametric Kruskal–Wallis test. All statistical tests were performed using JMP Statistical Discovery software (version 7; SAS Institute, Cary, NC).
For data set [3], the system named is relapsed/refractory AML and myelodysplastic syndrome. More on the design: method as in PMID 24369094, PMID 21538061. To be noted: some patients; cited from earlier work.
Data set [4] in a line: Plasma pharmacokinetics of belinostat and belinostat glucuronide (LC/MS/MS, noncompartmental analysis).
Method: as §1, §2, §3
On the set-up of data set [5]: method as in PMID 31097586, PMID 33441097. To be noted: e.g. value, compared with clinical Cmax; cited from earlier work.
Setting [6] is: cycle 1 day 1, dose level 1, belinostat 800 mg/m^2 IV (pevonedistat 20 mg/m^2), n=2, actual values.
Where [7] appears, read: cycle 1 day 1, dose level 3, belinostat 800 mg/m^2 IV (pevonedistat 37 mg/m^2), n=2, actual values.

Each structure is given as a SMILES string. Like-named read-outs stand apart in the source and are kept apart here.

Usually half-life stands for how long it takes for the measured level to halve. High values mean slow decline, low ones rapid decline.

On to `Nc1ncn([C@@H]2O[C@H](CO)[C@@H](O)[C@H]2O)c(=O)n1` [azacitidine], for which, in data set [1], the Survival was 20.6 mos.
Turning to `O=C(/C=C/c1cccc(S(=O)(=O)Nc2ccccc2)c1)NO[C@@H]1O[C@H](C(=O)O)[C@@H](O)[C@H](O)[C@H]1O` [Belinostat glucuronide], in data set [2], the “Pharmacokinetic parameters compared between dose levels” value was “not different by dose level”.
For the molecule `O=C(/C=C/c1cccc(S(=O)(=O)Nc2ccccc2)c1)NO` [Belinostat], in data set [3], the Single-agent clinical activity entry is on record as “stable disease over several months”. The “Belinostat clearance by BSA-based dose” value in data set [4] (1000 mg/m^2 compared with 800 mg/m^2, p = 0.05, Kruskal–Wallis) is reported as “significantly higher”. The AUCINF in data set [4] (setting [6]) is given as 75.2 µM·h; in data set [4] (setting [7]) it was 87.4 µM·h. Moreover, the “Cl (systemic clearance)” value in data set [4] (setting [6]) was 87.5 L/h; in data set [4] (setting [7]), 82.4 L/h. Also, the figures for the T1/2 in data set [4] (setting [6]) and in data set [4] (setting [7]) were 40.2 min and 87.6 min, respectively. For the same molecule, the Tmax in data set [4] (cycle 1 day 1, dose level 2, belinostat 800 mg/m^2 IV (pevonedistat 25 mg/m^2), median (range; n)) was 0.5 (0.4–0.5; 3) h; in data set [4] (cycle 1 day 1, dose level 3, belinostat 800 mg/m^2 IV (pevonedistat 37 mg/m^2), median (range; n)), 0.4 (0.4–0.5; 3) h; in data set [4] (human, plasma, iv), 30 min. Besides, the “Pharmacokinetic parameters compared between dose levels” value in data set [4] (dose levels 1-5, Kruskal–Wallis) is “not different by dose level”. The AUC(0-inf) is 67.5 ± 19.1 µM·h in data set [4] (human, plasma, iv, 800 mg/m2, AUCINF, cycle 1 day 1, belinostat 800 mg/m^2 IV, all 800 mg/m^2 patients (dose levels 1-3), mean±SD, n=7); 51.6 ± 25.8 µM·h in data set [4] (human, plasma, iv, 1000 mg/m2, AUCINF, cycle 1 day 1, belinostat 1000 mg/m^2 IV, all 1000 mg/m^2 patients (dose levels 4-5), mean±SD, n=7); 54.6 µM·h in data set [4] (human, plasma, iv, AUCINF, cycle 1 day 1, dose level 1, belinostat 800 mg/m^2 IV (pevonedistat 20 mg/m^2), n=2, actual values); 64.7 ± 27.4 µM·h in data set [4] (human, plasma, iv, AUCINF, cycle 1 day 1, dose level 2, belinostat 800 mg/m^2 IV (pevonedistat 25 mg/m^2), mean±SD, n=3); 61 µM·h in data set [4] (human, plasma, iv, AUCINF, cycle 1 day 1, dose level 3, belinostat 800 mg/m^2 IV (pevonedistat 37 mg/m^2), n=2, actual values); 60.3 ± 39.2 µM·h in data set [4] (human, plasma, iv, AUCINF, cycle 1 day 1, dose level 4, belinostat 1000 mg/m^2 IV (pevonedistat 37 mg/m^2), mean±SD, n=3). Moreover, the AUC(0-inf) in data set [4] (human, plasma, iv, AUCINF, cycle 1 day 1, dose level 5, belinostat 1000 mg/m^2 IV (pevonedistat 50 mg/m^2), mean±SD, n=4) was 45.1 ± 13.4 µM·h. Also, the clearance in data set [4] (human, plasma, iv, 800 mg/m2, Cl (systemic clearance), cycle 1 day 1, belinostat 800 mg/m^2 IV, all 800 mg/m^2 patients (dose levels 1-3), mean±SD, n=7) is 1290 mL/min; in data set [4] (human, plasma, iv, 1000 mg/m2, Cl (systemic clearance), cycle 1 day 1, belinostat 1000 mg/m^2 IV, all 1000 mg/m^2 patients (dose levels 4-5), mean±SD, n=7), 2180 mL/min; in data set [4] (human, plasma, iv, Cl (systemic clearance), cycle 1 day 1, dose level 1, belinostat 800 mg/m^2 IV (pevonedistat 20 mg/m^2), n=2, actual values), 1000 mL/min; in data set [4] (human, plasma, iv, Cl (systemic clearance), cycle 1 day 1, dose level 2, belinostat 800 mg/m^2 IV (pevonedistat 25 mg/m^2), mean±SD, n=3), 1380 mL/min; in data set [4] (human, plasma, iv, Cl (systemic clearance), cycle 1 day 1, dose level 3, belinostat 800 mg/m^2 IV (pevonedistat 37 mg/m^2), n=2, actual values) it was 1030 mL/min; in data set [4] (human, plasma, iv, Cl (systemic clearance), cycle 1 day 1, dose level 4, belinostat 1000 mg/m^2 IV (pevonedistat 37 mg/m^2), mean±SD, n=3) it was 2020 mL/min. This molecule gave a clearance in data set [4] (human, plasma, iv, Cl (systemic clearance), cycle 1 day 1, dose level 5, belinostat 1000 mg/m^2 IV (pevonedistat 50 mg/m^2), mean±SD, n=4) of 2300 mL/min. Also, the half-life is 67.8 ± 30 min in data set [4] (human, plasma, iv, 800 mg/m2, T1/2, cycle 1 day 1, belinostat 800 mg/m^2 IV, all 800 mg/m^2 patients (dose levels 1-3), mean±SD, n=7); 53.4 ± 18 min in data set [4] (human, plasma, iv, 1000 mg/m2, T1/2, cycle 1 day 1, belinostat 1000 mg/m^2 IV, all 1000 mg/m^2 patients (dose levels 4-5), mean±SD, n=7); 35.4 min in data set [4] (human, plasma, iv, T1/2, cycle 1 day 1, dose level 1, belinostat 800 mg/m^2 IV (pevonedistat 20 mg/m^2), n=2, actual values); 81.6 ± 36.6 min in data set [4] (human, plasma, iv, T1/2, cycle 1 day 1, dose level 2, belinostat 800 mg/m^2 IV (pevonedistat 25 mg/m^2), mean±SD, n=3); 67.2 min in data set [4] (human, plasma, iv, T1/2, cycle 1 day 1, dose level 3, belinostat 800 mg/m^2 IV (pevonedistat 37 mg/m^2), n=2, actual values); 61.2 ± 26.4 min in data set [4] (human, plasma, iv, T1/2, cycle 1 day 1, dose level 4, belinostat 1000 mg/m^2 IV (pevonedistat 37 mg/m^2), mean±SD, n=3). The half-life in data set [4] (human, plasma, iv, T1/2, cycle 1 day 1, dose level 5, belinostat 1000 mg/m^2 IV (pevonedistat 50 mg/m^2), mean±SD, n=4) is 47.4 ± 7.2 min. The Cmax in data set [4] (human, plasma, iv, 1000 mg/m2, preEOI Cmax (peak plasma concentration), cycle 1 day 1, belinostat 1000 mg/m^2 IV, all 1000 mg/m^2 patients (dose levels 4-5), mean±SD, n=7) is 104 ± 37.8 µM; in data set [4] (human, plasma, iv, preEOI Cmax (peak plasma concentration), cycle 1 day 1, dose level 1, belinostat 800 mg/m^2 IV (pevonedistat 20 mg/m^2), n=2, actual values) it was 109 µM; in data set [4] (human, plasma, iv, preEOI Cmax (peak plasma concentration), cycle 1 day 1, dose level 2, belinostat 800 mg/m^2 IV (pevonedistat 25 mg/m^2), mean±SD, n=3), 120 ± 50.3 µM; in data set [4] (human, plasma, iv, preEOI Cmax (peak plasma concentration), cycle 1 day 1, dose level 4, belinostat 1000 mg/m^2 IV (pevonedistat 37 mg/m^2), mean±SD, n=4), 96.5 ± 46 µM; in data set [4] (human, plasma, iv, preEOI Cmax (peak plasma concentration), cycle 1 day 1, dose level 5, belinostat 1000 mg/m^2 IV (pevonedistat 50 mg/m^2), mean±SD, n=3), 114 ± 29.4 µM; in data set [4] (read-out: preEOI Cmax (peak plasma concentration), cycle 1 day 1, belinostat 800 mg/m^2 IV, all 800 mg/m^2 patients (dose levels 1-3), mean±SD, n=8) it was 123 ± 34.3 µM. Also, the Cmax in data set [4] (read-out: preEOI Cmax (peak plasma concentration), cycle 1 day 1, dose level 1, belinostat 800 mg/m^2 IV (pevonedistat 20 mg/m^2), n=2, actual values) was 144 µM; in data set [4] (read-out: preEOI Cmax (peak plasma concentration), cycle 1 day 1, dose level 3, belinostat 800 mg/m^2 IV (pevonedistat 37 mg/m^2), mean±SD, n=3), 125 ± 35 µM. In addition, the “Concentrations shown to exert activity in preclinical studies” value in data set [5] is 100 to 200 nM.
